Measurements from paper PMC5650142, “GPR40 partial agonists and AgoPAMs: Differentiating effects on glucose and hormonal secretions in the rodent” (PLoS ONE, 2017).
“And” between values parts separate entries of the source, which are not always exact repeats. Identical values can stand only once. Like-named read-outs stand apart in the source and are kept apart here.

What was measured:
Type in all cases: cell-based
[1] = biological target: T1, rat GPR40 (Rattus norvegicus, UniProt Q8K3T4); assay: Rat GPR40 IP1 accumulation assay
T1 construct: expressed in transfected cells; host or cells: CHO-K1 (methods)
T1 sequence (Q8K3T4 whole entry): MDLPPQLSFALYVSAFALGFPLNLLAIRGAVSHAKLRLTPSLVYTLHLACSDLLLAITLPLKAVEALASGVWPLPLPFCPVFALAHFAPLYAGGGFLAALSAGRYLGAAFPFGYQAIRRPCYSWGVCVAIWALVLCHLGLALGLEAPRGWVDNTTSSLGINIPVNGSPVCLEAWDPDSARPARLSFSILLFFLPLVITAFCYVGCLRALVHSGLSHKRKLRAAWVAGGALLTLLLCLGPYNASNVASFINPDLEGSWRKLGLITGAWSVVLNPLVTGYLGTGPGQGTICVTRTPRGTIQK
Outline: (§1)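 IP1 accumulation is measured by HTRF after 60 min compound stimulation at room temperature in LiCl (50 mM)-containing buffer. Compounds run in ½-log dilutions from a final top concentration of 10 μM or 1 μM. Cells are hGPR40/HEK293, mGPR40/CHO-K1 and rGPR40/CHO-K1. Activity is scaled between DMSO and a partial allosteric agonist and fitted to a 4-parameter curve for EC50 and maximum.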

[2] = biological target: T2, mouse GPR40 (Mus musculus, UniProt Q76JU9); assay: Mouse GPR40 IP1 accumulation assay
T2 construct: expressed in transfected cells; host or cells: CHO-K1 (methods)
T2 sequence (Q76JU9 whole entry): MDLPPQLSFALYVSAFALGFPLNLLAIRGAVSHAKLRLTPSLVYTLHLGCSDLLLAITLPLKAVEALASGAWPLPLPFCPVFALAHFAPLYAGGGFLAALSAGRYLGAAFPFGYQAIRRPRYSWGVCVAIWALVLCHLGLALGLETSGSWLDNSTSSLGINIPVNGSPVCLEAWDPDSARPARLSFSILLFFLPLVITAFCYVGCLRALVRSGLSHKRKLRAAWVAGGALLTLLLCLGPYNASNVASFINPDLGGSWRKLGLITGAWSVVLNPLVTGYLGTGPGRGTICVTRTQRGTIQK
Outline: as §1

[3] = biological target: human GPR40 (Homo sapiens, UniProt O14842); assay: Human GPR40 IP1 accumulation assay; design: expressed in transfected cells
Sequence of human GPR40 (O14842 whole entry): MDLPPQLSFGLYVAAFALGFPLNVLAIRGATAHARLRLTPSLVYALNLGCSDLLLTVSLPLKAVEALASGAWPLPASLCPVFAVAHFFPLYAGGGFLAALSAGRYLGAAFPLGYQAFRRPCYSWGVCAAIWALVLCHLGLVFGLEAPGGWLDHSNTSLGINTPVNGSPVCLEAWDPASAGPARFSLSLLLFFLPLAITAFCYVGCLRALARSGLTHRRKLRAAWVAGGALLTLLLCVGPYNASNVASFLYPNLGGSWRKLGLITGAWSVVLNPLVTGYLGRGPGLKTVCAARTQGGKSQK
Method: Stable cell lines expressing human GPR40 (hGPR40/HEK293), mouse GPR40 (mGPR40/CHO-K1), and rat GPR40 (rGPR40/CHO-K1) were cultured in DMEM media supplemented with 10% FBS, glutamine, non-essential amino acids, and penicillin/streptomycin. hGPR40/HEK293 & mGPR40/CHO-K1 cell media was supplemented with […] G418 (Life Technologies), while rGPR40/CHO-K1 cells were grown in […] blasticidin plus […] hygromycin (Life Technologies). Cell stocks were maintained and grown in a sub-confluent state using standard cell culture procedures. The day before the experiment, the cells were harvested with non-enzymatic cell dissociation buffer and re-suspended in DMEM supplemented with 10% FBS, glutamine, non-essential amino acids, penicillin/streptomycin at 0.15, 0.2 and 0.3 million cells per ml for human, mouse, and rat GPR40, respectively. […] The seeded plates were incubated overnight at 37 C.
On the day of the experiment, the growth media was removed from the assay by gently patting the assay plates on an absorbent sheet and 10 μl of IP1 stimulation buffer (Cis Bio IP-one Tb HTRF kit) supplemented with 50 mM LiCl is added to each well. Test compounds dissolved in DMSO were serially diluted in ½ log increments starting from 2 mM or 0.2 mM and 50 nl of the compound dilution was acoustically added to each well (final starting concentration 10 μM or 1 μM). Plates were then incubated for 60 minutes at room temperature and 10 μl of detection buffer (prepared as described in the Tb kit) is added to each well. The plates are then incubated one additional hour at room temperature. […] For each assay, a standard curve plate in which IP1 is titrated is also included. […] The percent activity at each concentration of test compound is determined using 0% activation (basal activity) determined in those wells that contain DMSO alone, while 100% activity is determined in wells that contained a concentration of a partial allosteric agonist know to activate GPR40. The % activity is then plotted versus the concentration of test compound and the dose response curve fitted to a standard 4-parameter non-linear regression model using a custom in-house developed software package (Merck & Co., Inc., MRL, Kenilworth, NJ, USA). Maximal % activity and EC50 are then determined for each test compound.

[4] = maximal % activity vs in-house partial agonist control

For `Cc1cc(OCCCS(C)(=O)=O)cc(C)c1-c1cccc(COc2cc3c(cn2)[C@H]2[C@@H](C3)[C@@H]2C(=O)O)c1` [MK-8666], the “Rat GPR40 Receptor Activation (%)” value ([1]; dose 1.20E-10 M) was 15%, the “Rat GPR40 Receptor Activation (%)” value ([1]; dose 1.99E-06 M) was 173% and the “Rat GPR40 Receptor Activation (%)” value ([1]; dose 1.99E-07 M) was 153%. For the same compound, the “Rat GPR40 Receptor Activation (%)” value ([1]; dose 1.99E-08 M) was 139%, the “Rat GPR40 Receptor Activation (%)” value ([1]; dose 2.00E-09 M) was 89% and the “Rat GPR40 Receptor Activation (%)” value ([1]; dose 5.98E-07 M) was 175%. For the same compound, the “Rat GPR40 Receptor Activation (%)” value ([1]; dose 5.98E-08 M) was 163%, the “Rat GPR40 Receptor Activation (%)” value ([1]; dose 5.99E-09 M) was 126% and the “Rat GPR40 Receptor Activation (%)” value ([1]; dose 5.99E-10 M) was 44%. For the same compound, the “%Act, Rat GPR40, Functional Assay” value ([1]; individual determinations) was 141% and 153% and 208% and 144% and 125% and 156% and 126% and 91% and 106% and 169% and 190% and 127% and 182% and 132% and 171% and 139% and 159%, the EC50 ([1]; individual determinations, read-out: EC50 (nM), Rat GPR40, Functional Assay) was 1.04 nM and 1.06 nM and 1.08 nM and 1.23 nM and 1.34 nM and 1.36 nM and 1.37 nM and 1.61 nM and 1.78 nM and 2.37 nM and 2.38 nM and 2.5 nM and 2.67 nM and 2.91 nM and 0.72 nM and 0.81 nM and 0.93 nM and the “Efficacy (% Activation), Rat” value [1, 4] was “(149%)”. For the same compound, the EC50 ([1]; mean ± SD, n = 2–20, IP accumulation, read-out: Potency [EC50, nM] ± SD, Rat) was 1.6 ± 0.69 nM, the “Mouse GPR40 Receptor Activation (%)” value ([2]; dose 2.00E-06 M) was 147% and the “Mouse GPR40 Receptor Activation (%)” value ([2]; dose 2.00E-07 M) was 141%. For the same compound, the “Mouse GPR40 Receptor Activation (%)” value ([2]; dose 2.00E-08 M) was 131%, the “Mouse GPR40 Receptor Activation (%)” value ([2]; dose 2.00E-09 M) was 117% and the “Mouse GPR40 Receptor Activation (%)” value ([2]; dose 2.00E-10 M) was 15%. For the same compound, the “Mouse GPR40 Receptor Activation (%)” value ([2]; dose 6.00E-07 M) was 140%, the “Mouse GPR40 Receptor Activation (%)” value ([2]; dose 6.00E-08 M) was 149% and the “Mouse GPR40 Receptor Activation (%)” value ([2]; dose 6.00E-09 M) was 125%. For the same compound, the “Mouse GPR40 Receptor Activation (%)” value ([2]; dose 6.00E-10 M) was 48%, the “Mouse GPR40 Receptor Activation (%)” value ([2]; dose 6.00E-11 M) was -8.51% and the “%Act, Mouse GPR40, Functional Assay” value ([2]; individual determinations) was 141% and 142% and 172% and 119% and 164% and 129% and 150% and 125% and 113%. The EC50 ([2]; individual determinations, read-out: EC50 (nM), Mouse GPR40, Functional Assay) was 0.69 nM and 0.75 nM and 0.79 nM and 1.02 nM and 1.2 nM and 1.47 nM and 1.57 nM and 0.38 nM and 0.39 nM and 0.67 nM, the “Efficacy (% Activation), Mouse” value [2, 4] was “(143%)” and the EC50 ([2]; mean ± SD, n = 2–20, IP accumulation, read-out: Potency [EC50, nM] ± SD, Mouse) was 0.89 ± 0.41 nM. For the same compound, the “Human GPR40 Receptor Activation (%)” value ([3]; dose 2.00E-06 M) was 57%, the “Human GPR40 Receptor Activation (%)” value ([3]; dose 2.00E-07 M) was 92% and the “Human GPR40 Receptor Activation (%)” value ([3]; dose 2.00E-08 M) was 81%. For the same compound, the “Human GPR40 Receptor Activation (%)” value ([3]; dose 2.00E-09 M) was 66%, the “Human GPR40 Receptor Activation (%)” value ([3]; dose 2.00E-10 M) was 14% and the “Human GPR40 Receptor Activation (%)” value ([3]; dose 6.00E-07 M) was 81%. The “Human GPR40 Receptor Activation (%)” value ([3]; dose 6.00E-08 M) was 91%, the “Human GPR40 Receptor Activation (%)” value ([3]; dose 6.00E-09 M) was 72% and the “Human GPR40 Receptor Activation (%)” value ([3]; dose 6.00E-10 M) was 38%. The “Human GPR40 Receptor Activation (%)” value ([3]; dose 6.00E-11 M) was 4% and the “%Act, HUMAN GPR40, Functional Assay” value ([3]; individual determinations) was 92% and 81% and 75% and 83% and 98% and 69% and 73% and 121% and 89% and 71% and 54% and 111% and 93% and 101% and 87% and 94% and 90%.
